Measurements as given in ChEMBL document CHEMBL1201862, “PubChem BioAssay data set” (2004).
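48-hour exposure; five concentrations; linearly interpolated endpoints. GI50 = concentration required for 50% inhibition of growth.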 The source made the active and inactive calls. Rule as the data show it: active = GI50 up to about 1.1 µM and inactive = higher.

Assays:
Assay in all cases: NCI tumour cell line growth inhibition, 48 h
LOX IMVI = tested on: LOX IMVI
HOP-92 = tested on: HOP-92
K562 = tested on: K562
Malme-3M = tested on: Malme-3M
A498 = tested on: A498
OVCAR-3 = tested on: OVCAR-3
NCI/ADR-RES = tested on: NCI/ADR-RES
NCI-H522 = tested on: NCI-H522
SK-MEL-28 = tested on: SK-MEL-28
COLO 205 = tested on: COLO 205
M14 = tested on: M14
SK-OV-3 = tested on: SK-OV-3
UO-31 = tested on: UO-31
SW-620 = tested on: SW-620
KM12 = tested on: KM12
NCI-H460 = tested on: NCI-H460
HOP-62 = tested on: HOP-62
CAKI-1 = tested on: CAKI-1
OVCAR-4 = tested on: OVCAR-4
NCI-H23 = tested on: NCI-H23

Structure (SMILES)	GI50 (LOX IMVI)	GI50 (HOP-92)	GI50 (K562)	GI50 (Malme-3M)	GI50 (A498)	GI50 (OVCAR-3)	GI50 (NCI/ADR-RES)	GI50 (NCI-H522)	GI50 (SK-MEL-28)	GI50 (COLO 205)	GI50 (M14)	GI50 (SK-OV-3)	GI50 (UO-31)	GI50 (SW-620)	GI50 (KM12)	GI50 (NCI-H460)	GI50 (HOP-62)	GI50 (CAKI-1)	GI50 (OVCAR-4)	GI50 (NCI-H23)
O=C1/C(=C/c2cccnc2)C(n2cccc2)c2c(Br)sc(Br)c21 (stereo not drawn)	1.93 µM (inactive)	2.01 µM (inactive)	2.17 µM (inactive)	3.01 µM (inactive)	16.6 µM (inactive)	1.92 µM (inactive)	7.43 µM (inactive)	6.07 µM (inactive)	2.53 µM (inactive)	6.64 µM (inactive)	2.15 µM (inactive)	15.8 µM (inactive)	1.78 µM (inactive)	2.32 µM (inactive)	3.43 µM (inactive)	4.16 µM (inactive)	2.73 µM (inactive)	2.59 µM (inactive)	2.07 µM (inactive)	2.52 µM (inactive)
CCOc1cc(-c2nc3ccccn3c2/N=C/c2cc([N+](=O)[O-])cc([N+](=O)[O-])c2O)ccc1O	> 100 µM (inactive)	> 100 µM (inactive)	> 100 µM (inactive)	> 100 µM (inactive)	> 100 µM (inactive)	> 100 µM (inactive)	> 100 µM (inactive)	> 100 µM (inactive)	> 100 µM (inactive)	> 100 µM (inactive)	> 100 µM (inactive)	> 100 µM (inactive)	> 100 µM (inactive)	> 100 µM (inactive)	> 100 µM (inactive)	> 100 µM (inactive)	> 100 µM (inactive)	> 100 µM (inactive)	> 100 µM (inactive)	> 100 µM (inactive)
C#CCN(Cc1ccc2nc(OC)c(OC)nc2c1)c1cc(OC)c(OC)c(OC)c1	11.7 µM (inactive)	7.43 µM (inactive)	3.98 µM (inactive)	23 µM (inactive)	35.5 µM (inactive)	37.8 µM (inactive)	10.7 µM (inactive)	9.44 µM (inactive)	40.9 µM (inactive)	17.4 µM (inactive)	22.1 µM (inactive)	24.5 µM (inactive)	22.1 µM (inactive)	30.2 µM (inactive)	15 µM (inactive)	20 µM (inactive)	22.9 µM (inactive)	24.2 µM (inactive)	13.4 µM (inactive)	8.36 µM (inactive)
N=c1oc2ccc(Cl)cc2cc1C(=O)NCc1ccccc1	> 100 µM (inactive)	28.9 µM (inactive)	> 42 µM (inactive)	18.4 µM (inactive)	63.5 µM (inactive)	> 100 µM (inactive)	27.4 µM (inactive)	24.7 µM (inactive)	> 100 µM (inactive)	> 100 µM (inactive)	> 100 µM (inactive)	> 100 µM (inactive)	> 61.7 µM (inactive)	> 100 µM (inactive)	43.4 µM (inactive)	> 100 µM (inactive)	> 87.3 µM (inactive)	> 100 µM (inactive)	> 100 µM (inactive)	> 100 µM (inactive)
C=C1C(=O)O[C@H]2[C@H]1CC(=O)/C(C)=C/CC[C@@]1(C)O[C@@H]21	0.354 µM (active)	0.74 µM (active)	–	1.25 µM (inactive)	1.64 µM (inactive)	0.224 µM (active)	1.4 µM (inactive)	0.256 µM (active)	0.603 µM (active)	0.255 µM (active)	0.37 µM (active)	12.9 µM (inactive)	0.879 µM (active)	0.324 µM (active)	2.49 µM (inactive)	10.9 µM (inactive)	8.36 µM (inactive)	0.53 µM (active)	2.93 µM (inactive)	1.67 µM (inactive)
CCOC(=O)/C(C(C)=O)=C(\OC(C)=O)c1ccncc1C(=O)O	> 100 µM (inactive)	> 100 µM (inactive)	> 100 µM (inactive)	> 100 µM (inactive)	> 100 µM (inactive)	> 100 µM (inactive)	> 100 µM (inactive)	> 100 µM (inactive)	> 100 µM (inactive)	> 100 µM (inactive)	> 100 µM (inactive)	> 100 µM (inactive)	> 100 µM (inactive)	> 100 µM (inactive)	> 100 µM (inactive)	> 100 µM (inactive)	–	> 100 µM (inactive)	> 100 µM (inactive)	> 100 µM (inactive)
CCOC(=O)/C(=C\NC(C)(C)C)c1nc2ccccc2o1	27.4 µM (inactive)	33.5 µM (inactive)	–	35.7 µM (inactive)	27.9 µM (inactive)	35.4 µM (inactive)	35.6 µM (inactive)	29.6 µM (inactive)	36.5 µM (inactive)	21.3 µM (inactive)	48 µM (inactive)	92 µM (inactive)	0.124 µM (active)	49.7 µM (inactive)	33.3 µM (inactive)	25.7 µM (inactive)	> 100 µM (inactive)	60.4 µM (inactive)	31.4 µM (inactive)	34.9 µM (inactive)
Cn1c(COC(=O)NC2CCCCC2)c(COC(=O)NC2CCCCC2)c2ccc3ccccc3c21	23.3 µM (inactive)	28.1 µM (inactive)	51.2 µM (inactive)	36.4 µM (inactive)	17.5 µM (inactive)	58.3 µM (inactive)	23.1 µM (inactive)	16.2 µM (inactive)	–	33.2 µM (inactive)	67.3 µM (inactive)	> 100 µM (inactive)	34 µM (inactive)	32.4 µM (inactive)	30 µM (inactive)	3.01 µM (inactive)	35 µM (inactive)	11 µM (inactive)	53.3 µM (inactive)	21.8 µM (inactive)
CCCCCC(=O)OCC1(CO)C/C(=C/CC(C(C)C)C(C)C)C(=O)O1 (stereo not drawn)	10.6 µM (inactive)	27 µM (inactive)	–	24.3 µM (inactive)	> 75 µM (inactive)	50 µM (inactive)	> 75 µM (inactive)	13.7 µM (inactive)	> 75 µM (inactive)	26.5 µM (inactive)	–	> 75 µM (inactive)	17.2 µM (inactive)	25.2 µM (inactive)	13.5 µM (inactive)	24.8 µM (inactive)	38.7 µM (inactive)	19.9 µM (inactive)	53.2 µM (inactive)	> 75 µM (inactive)
O=C1C=C(Nc2ccc(S(=O)(=O)Nc3nccs3)cc2)c2ccccc2C1=O	19.8 µM (inactive)	34.5 µM (inactive)	12.1 µM (inactive)	21 µM (inactive)	71 µM (inactive)	17 µM (inactive)	27.5 µM (inactive)	38.5 µM (inactive)	16.5 µM (inactive)	–	21.9 µM (inactive)	> 100 µM (inactive)	56.9 µM (inactive)	19.4 µM (inactive)	17.8 µM (inactive)	34 µM (inactive)	15.4 µM (inactive)	26.8 µM (inactive)	32.9 µM (inactive)	35.6 µM (inactive)
